According to publication PMC12281424, “A Rac-specific competitive inhibitor of guanine nucleotide binding reduces metastasis in triple-negative breast cancer” (Cell Reports Medicine, 2025):

How the values were obtained:
[1] = target: Protein Tyrosine Kinase, Insulin Receptor (Homo sapiens, UniProt P06213); test: Safety screen; type: biochemical
Description: (§1) The kinase profiler was performed by the company Eurofins (Discovery, Panlab and Cerep).

Dopamine D2L = Dopamine D2L (Homo sapiens, UniProt P14416); test: Safety screen; type: binding
Description: (§2) Blood cell counts, kinase profiler, safety screen, bacterial cytotoxicity, Ames, micronucleus assays were performed by the company Eurofins (France).

Glutamate, NMDA, Glycine = test: Safety screen; type: binding, rat
Description: (§3) Blood cell counts, kinase profiler, safety screen, bacterial cytotoxicity, Ames, micronucleus assays were performed by the company Eurofins (France). The kinase profiler was performed by the company Eurofins (Discovery, Panlab and Cerep).

Muscarinic M3 = Muscarinic M3 (Homo sapiens, UniProt P20309); test: Safety screen; type: binding
Description: as §2

Blk(m) = Blk(m) (Mus musculus, UniProt P16277); test: Kinase Profiler; type: biochemical
Chain of Blk(m) (P16277 2-499 limits assumed): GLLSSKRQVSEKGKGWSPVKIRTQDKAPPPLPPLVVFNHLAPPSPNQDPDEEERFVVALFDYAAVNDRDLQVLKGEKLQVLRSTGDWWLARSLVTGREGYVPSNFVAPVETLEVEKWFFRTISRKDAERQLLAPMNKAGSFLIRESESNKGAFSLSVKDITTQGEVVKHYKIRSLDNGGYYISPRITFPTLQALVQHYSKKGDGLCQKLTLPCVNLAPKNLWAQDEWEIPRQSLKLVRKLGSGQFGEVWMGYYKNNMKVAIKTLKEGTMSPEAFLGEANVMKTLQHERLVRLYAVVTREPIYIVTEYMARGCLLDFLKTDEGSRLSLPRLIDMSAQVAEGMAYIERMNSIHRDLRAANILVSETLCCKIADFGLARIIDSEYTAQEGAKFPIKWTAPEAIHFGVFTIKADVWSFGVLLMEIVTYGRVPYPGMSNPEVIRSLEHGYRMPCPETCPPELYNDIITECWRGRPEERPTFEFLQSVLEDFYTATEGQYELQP
Description: as §3

CDK5/p35(h) = CDK5/p35(h) (Homo sapiens, UniProt Q00535); test: Kinase Profiler; type: biochemical
Chain of CDK5/p35(h) (Q00535 whole entry): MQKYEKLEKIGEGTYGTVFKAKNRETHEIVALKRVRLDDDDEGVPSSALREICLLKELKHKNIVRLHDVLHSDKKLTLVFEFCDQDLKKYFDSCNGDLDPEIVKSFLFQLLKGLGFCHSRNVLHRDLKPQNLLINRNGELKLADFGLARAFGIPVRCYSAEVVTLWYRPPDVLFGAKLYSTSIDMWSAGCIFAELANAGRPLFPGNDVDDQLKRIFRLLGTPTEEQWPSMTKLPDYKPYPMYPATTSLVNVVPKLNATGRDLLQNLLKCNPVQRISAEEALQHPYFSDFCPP
Chain of CDK5/p35(h) (Q15078 whole entry partner): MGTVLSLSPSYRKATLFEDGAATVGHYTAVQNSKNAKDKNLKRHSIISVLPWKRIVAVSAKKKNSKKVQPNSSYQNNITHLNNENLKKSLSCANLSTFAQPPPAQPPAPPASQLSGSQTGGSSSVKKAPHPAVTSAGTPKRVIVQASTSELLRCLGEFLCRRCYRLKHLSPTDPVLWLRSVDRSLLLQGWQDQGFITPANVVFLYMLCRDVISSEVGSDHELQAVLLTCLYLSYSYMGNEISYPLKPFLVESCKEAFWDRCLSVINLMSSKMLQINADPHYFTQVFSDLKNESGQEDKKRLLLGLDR
Description: as §3

CK1γ1(h) = CK1γ1(h) (Homo sapiens, UniProt Q9HCP0); test: Kinase Profiler; type: biochemical
Description: as §3

EphB1(h) = EphB1(h) (Homo sapiens, UniProt P54762); test: Kinase Profiler; type: biochemical
Chain of EphB1(h) (P54762 18-984): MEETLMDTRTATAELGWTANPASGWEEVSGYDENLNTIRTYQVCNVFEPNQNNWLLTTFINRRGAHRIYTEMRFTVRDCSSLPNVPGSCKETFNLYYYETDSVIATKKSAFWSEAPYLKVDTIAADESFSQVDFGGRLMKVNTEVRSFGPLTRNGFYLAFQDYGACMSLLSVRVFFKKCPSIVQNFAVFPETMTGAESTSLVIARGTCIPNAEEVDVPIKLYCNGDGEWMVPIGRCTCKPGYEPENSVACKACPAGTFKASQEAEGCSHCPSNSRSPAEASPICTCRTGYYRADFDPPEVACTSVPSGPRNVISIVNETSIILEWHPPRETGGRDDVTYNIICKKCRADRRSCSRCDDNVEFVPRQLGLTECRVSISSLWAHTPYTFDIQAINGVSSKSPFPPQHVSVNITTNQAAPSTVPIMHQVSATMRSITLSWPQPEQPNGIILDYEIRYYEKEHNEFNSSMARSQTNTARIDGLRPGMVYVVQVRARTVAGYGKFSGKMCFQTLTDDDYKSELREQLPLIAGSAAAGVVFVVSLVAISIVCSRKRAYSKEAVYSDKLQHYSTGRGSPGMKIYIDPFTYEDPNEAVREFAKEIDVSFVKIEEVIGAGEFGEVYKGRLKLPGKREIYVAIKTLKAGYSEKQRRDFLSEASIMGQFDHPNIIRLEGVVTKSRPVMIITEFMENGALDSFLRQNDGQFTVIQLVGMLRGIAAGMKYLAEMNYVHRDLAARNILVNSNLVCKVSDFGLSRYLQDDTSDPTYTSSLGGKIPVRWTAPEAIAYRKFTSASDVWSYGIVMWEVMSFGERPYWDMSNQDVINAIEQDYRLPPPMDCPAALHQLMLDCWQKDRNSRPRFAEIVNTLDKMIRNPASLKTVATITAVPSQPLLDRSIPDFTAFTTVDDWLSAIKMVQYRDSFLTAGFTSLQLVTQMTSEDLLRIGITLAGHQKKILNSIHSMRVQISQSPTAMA
Description: as §3

MKK6(h) = MKK6(h) (Homo sapiens, UniProt P52564); test: Kinase Profiler; type: biochemical
Chain of MKK6(h) (P52564 whole entry): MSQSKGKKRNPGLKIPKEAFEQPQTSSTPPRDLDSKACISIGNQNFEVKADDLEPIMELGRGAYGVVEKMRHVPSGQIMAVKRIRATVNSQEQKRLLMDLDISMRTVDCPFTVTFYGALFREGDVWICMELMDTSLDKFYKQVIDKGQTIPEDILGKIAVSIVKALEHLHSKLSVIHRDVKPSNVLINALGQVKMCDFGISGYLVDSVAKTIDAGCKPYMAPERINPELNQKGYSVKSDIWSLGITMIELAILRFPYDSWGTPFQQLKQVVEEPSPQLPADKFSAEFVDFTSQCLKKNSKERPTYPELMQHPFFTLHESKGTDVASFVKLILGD
Description: as §1

MRCKα(h) = MRCKα(h) (Homo sapiens, UniProt Q5VT25); test: Kinase Profiler; type: biochemical
Chain of MRCKα(h) (Q5VT25 whole entry): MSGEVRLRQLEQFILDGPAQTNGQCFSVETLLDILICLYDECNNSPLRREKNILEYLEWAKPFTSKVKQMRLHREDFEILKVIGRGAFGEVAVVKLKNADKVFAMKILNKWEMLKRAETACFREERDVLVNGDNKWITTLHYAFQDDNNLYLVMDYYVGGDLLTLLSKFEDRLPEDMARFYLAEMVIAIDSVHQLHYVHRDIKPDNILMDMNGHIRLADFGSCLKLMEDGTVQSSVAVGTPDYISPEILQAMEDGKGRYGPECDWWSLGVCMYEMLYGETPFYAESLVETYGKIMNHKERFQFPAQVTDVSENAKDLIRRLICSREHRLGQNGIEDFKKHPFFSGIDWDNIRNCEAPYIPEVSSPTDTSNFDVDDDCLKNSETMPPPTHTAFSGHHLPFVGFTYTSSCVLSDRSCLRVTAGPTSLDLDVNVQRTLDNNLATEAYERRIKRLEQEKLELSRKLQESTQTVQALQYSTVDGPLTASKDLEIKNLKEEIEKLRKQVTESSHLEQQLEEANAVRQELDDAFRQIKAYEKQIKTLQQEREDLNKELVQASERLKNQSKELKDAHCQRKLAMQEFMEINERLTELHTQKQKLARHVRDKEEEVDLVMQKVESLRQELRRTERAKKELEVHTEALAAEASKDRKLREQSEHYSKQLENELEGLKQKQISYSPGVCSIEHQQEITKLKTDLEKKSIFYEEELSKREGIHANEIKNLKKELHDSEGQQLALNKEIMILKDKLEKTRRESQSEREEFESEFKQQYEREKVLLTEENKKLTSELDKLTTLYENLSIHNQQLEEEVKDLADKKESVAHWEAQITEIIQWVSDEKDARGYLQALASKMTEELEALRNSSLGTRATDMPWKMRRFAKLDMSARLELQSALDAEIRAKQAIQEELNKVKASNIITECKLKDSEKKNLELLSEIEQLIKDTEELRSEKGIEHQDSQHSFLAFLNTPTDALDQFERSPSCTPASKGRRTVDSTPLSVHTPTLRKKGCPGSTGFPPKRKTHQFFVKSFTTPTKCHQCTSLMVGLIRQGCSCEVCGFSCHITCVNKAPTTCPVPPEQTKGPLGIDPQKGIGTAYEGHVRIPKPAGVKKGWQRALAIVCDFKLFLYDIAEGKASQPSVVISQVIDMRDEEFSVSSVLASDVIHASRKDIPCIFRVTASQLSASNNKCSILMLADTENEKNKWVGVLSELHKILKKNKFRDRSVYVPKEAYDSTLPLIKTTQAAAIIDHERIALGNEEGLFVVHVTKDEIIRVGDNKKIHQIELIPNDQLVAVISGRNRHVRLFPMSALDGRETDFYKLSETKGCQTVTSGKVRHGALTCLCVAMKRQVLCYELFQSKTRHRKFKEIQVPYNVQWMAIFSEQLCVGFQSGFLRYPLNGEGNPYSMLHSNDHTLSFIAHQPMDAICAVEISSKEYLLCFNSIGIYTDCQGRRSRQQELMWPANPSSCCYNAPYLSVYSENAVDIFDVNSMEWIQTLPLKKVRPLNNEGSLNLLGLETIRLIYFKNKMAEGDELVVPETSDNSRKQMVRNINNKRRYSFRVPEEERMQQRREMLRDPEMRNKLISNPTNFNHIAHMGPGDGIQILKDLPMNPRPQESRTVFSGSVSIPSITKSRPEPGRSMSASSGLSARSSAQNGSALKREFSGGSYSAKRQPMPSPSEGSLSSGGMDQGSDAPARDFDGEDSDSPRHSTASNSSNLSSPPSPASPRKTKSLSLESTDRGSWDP
Description: as §1

mTOR/FKBP12(h) = mTOR/FKBP12(h) (Homo sapiens, UniProt P42345); test: Kinase Profiler; type: biochemical
Description: as §1

PAK2(h) = PAK2(h) (Homo sapiens, UniProt Q13177); test: Kinase Profiler; type: biochemical
Description: as §3

PRAK(h) = PRAK(h) (Homo sapiens, UniProt Q8IW41); test: Kinase Profiler; type: biochemical
Description: as §3

Rse(h) = Rse(h) (Homo sapiens, UniProt Q06418); test: Kinase Profiler; type: biochemical
Chain of Rse(h) (Q06418 41-890): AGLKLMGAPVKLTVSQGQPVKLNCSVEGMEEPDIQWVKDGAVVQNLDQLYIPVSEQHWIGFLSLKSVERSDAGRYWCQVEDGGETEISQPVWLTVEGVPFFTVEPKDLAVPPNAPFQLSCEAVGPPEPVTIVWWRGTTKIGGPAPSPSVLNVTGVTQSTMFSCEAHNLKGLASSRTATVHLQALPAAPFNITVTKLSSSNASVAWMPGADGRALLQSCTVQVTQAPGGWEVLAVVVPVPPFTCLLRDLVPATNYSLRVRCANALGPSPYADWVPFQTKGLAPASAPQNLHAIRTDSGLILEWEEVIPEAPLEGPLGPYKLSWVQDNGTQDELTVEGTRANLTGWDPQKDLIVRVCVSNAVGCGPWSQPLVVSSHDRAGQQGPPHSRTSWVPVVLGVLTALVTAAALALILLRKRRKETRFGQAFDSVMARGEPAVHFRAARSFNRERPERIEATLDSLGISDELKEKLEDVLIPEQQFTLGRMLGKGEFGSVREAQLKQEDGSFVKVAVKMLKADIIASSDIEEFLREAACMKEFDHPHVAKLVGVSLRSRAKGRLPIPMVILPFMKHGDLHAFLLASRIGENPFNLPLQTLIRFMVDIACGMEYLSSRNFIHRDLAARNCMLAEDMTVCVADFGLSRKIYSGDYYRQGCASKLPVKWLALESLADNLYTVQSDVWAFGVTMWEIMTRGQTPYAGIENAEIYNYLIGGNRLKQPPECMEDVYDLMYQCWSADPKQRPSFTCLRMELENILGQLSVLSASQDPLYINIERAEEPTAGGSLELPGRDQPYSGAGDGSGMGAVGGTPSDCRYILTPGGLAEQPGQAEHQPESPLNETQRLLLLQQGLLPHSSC
Description: as §1

Rsk1(r) = Rsk1(r) (Rattus norvegicus, UniProt Q63531); test: Kinase Profiler; type: biochemical
Description: as §1

RHOA = RHOA (Homo sapiens, UniProt P61586); test: GEF-stimulated nucleotide exchange; type: biochemical; design: Full-length RAC2, RHOG, RHOA and CDC42 were purified as previously described; made in house; p115RhoGEF DH-PH in insect cells (Sf21); conditions: 10^-5 M
Description: Figure 4 A41 selectively impairs RAC protein activation (A) Representative surface plasmon resonance (SPR) sensograms of binding of immobilized RHOA or CDC42 with indicated increasing concentrations of A41 (N > 3). (B) Effect of A41 on GEF-stimulated RAC2, RHOG, RHOA, and CDC42 nucleotide exchange. […] Kobs is expressed as mean ± SEM. ∗p < 0.001 vs. control. (C) Effect of A41 on RAC1 G30S activation. […] The GEF TRIO was used to induce nucleotide exchange (N = 3). Data are expressed as mean ± SEM. (D) Immunoblot analysis and associated quantification of RAC-GTP level and total RAC expression in NIH-3T3 fibroblasts expressing RAC wild-type (RAC1 WT) or RAC1 oncomutants (RAC1 P29S and RAC1b) in the absence (Ctrl) and presence of A41 (10 μM). RAC activation was measured as the ratio of RAC-GTP to total RAC and expressed relative to Ctrl condition. Data are presented as mean ± SEM. ∗∗∗p < 0.001 vs. controls.
Full-length RAC1 carrying a 6xHis tag in C-terminus was purified as previously described.[64] […] Specific exchange activity toward RHOA determined by fluorescence kinetics is 0.04 s^−1M^−1.
Nucleotide exchange kinetics were measured by recording the increase in fluorescence following the association of mant-GTP on GDP-bound RHO protein or the decay in fluorescence following the dissociation of mant-GDP pre-loaded onto the RHO protein (λEx = 360 nm, λEm = 440 nm) as previously described.[39] […]

## COc1ccc(OC)c(NS(=O)(=O)c2ccc(NC(=O)CCSc3ccc(C)cc3)cc2)c1 [Compound A41]
[1]
  % inh.: -25%
Dopamine D2L
  % inh.: 9%
Glutamate, NMDA, Glycine
  % inh.: 7%
Muscarinic M3
  % inh.: 4%
Blk(m)
  Activity(%): 87%
CDK5/p35(h)
  Activity(%): 99%
CK1γ1(h)
  Activity(%): 106%
EphB1(h)
  Activity(%): 111%
MKK6(h)
  Activity(%): 90%
MRCKα(h)
  Activity(%): 109%
mTOR/FKBP12(h)
  Activity(%): 104%
PAK2(h)
  Activity(%): 110%
PRAK(h)
  Activity(%): 88%
Rse(h)
  Activity(%): 102%
Rsk1(r)
  Activity(%): 128%
RHOA
  activation of RHOA induced by p115RhoGEF DH-PH: did not change the activation
